# Laboratory results from US9186346B2, “Methods for reducing the risk of an adverse teriflunomide and rosuvastatin interaction in multiple sclerosis patients” (SANOFI, priority 2013, dated 2015).
# What was measured:
# [1] = Crossover interaction study: effect of repeated doses of teriflunomide on the pharmacokinetics of a single dose of rosuvastatin in healthy male subjects; assay type: in vivo, human
# Protocol: A single-center, open-label, 1-sequence, 2-period, 2-treatment crossover study with a 5-day washout between periods was conducted in 15 healthy male subjects aged 18 to 45 to evaluate the effect of repeated doses of teriflunomide on the pharmacokinetics (PK) of a single dose of rosuvastatin 10 mg. All subjects received the following treatments during each period: • 1. Period 1: A single 10 mg dose of rosuvastatin was administered in fasted state followed by a 5-day washout (from Days 1 to 6). Day 6 corresponded to Day 1 of Period 2. • 2. Period 2: A loading dose of 70 mg teriflunomide was administered once a day for 4 days (Days 1 to 4), followed by 14 mg once a day for 8 days (Days 5 to 12) in fed conditions except for Day 12. A single dose of 10 mg rosuvastatin was co-administered with teriflunomide on Day 12 in fasted conditions.
# The following PK parameters were calculated using noncompartmental methods from plasma rosuvastatin concentration obtained after single dose administration:
# Rosuvastatin: Area under the plasma concentration versus time curve (AUC) from time zero to the real time corresponding to the last concentration above the lower limit of quantitation, tlast, (AUClast) and area under the plasma concentration versus time curve extrapolated to infinity (AUC).
# Rosuvastatin: Maximum plasma concentration (Cmax) observed, time to reach maximum concentration (Tmax), tlast, and terminal half-life (t1/2z).
# Rosuvastatin: Blood samples were collected at predose, 0.5, 1, 2, 3, 4, 5, 6, 8, 10, 12, 24 and 36 hours postdose on Day 1 of Period 1 and Day 12 of Period 2.
# Rosuvastatin plasma concentrations were determined by a validated liquid chromatography couples with tandem mass spectrometry (LC-MS/MS) method, with a LLOQ (lower limit of quantification) of 50.1 pg/mL. Teriflunomide plasma concentrations were determined with a validated LC-MS/MS method with an LLOQ of 0.01 μg/mL.
# Rosuvastatin PK parameters and teriflunomide Ctrough (trough plasma concentration) were summarized with descriptive statistics for each treatment.
# human OATP1B1 = biological target: T1, human OATP1B1 (Homo sapiens, UniProt Q9Y6L6); assay: In vitro inhibition of human OATP1B1
# T1 sequence (Q9Y6L6 1-691): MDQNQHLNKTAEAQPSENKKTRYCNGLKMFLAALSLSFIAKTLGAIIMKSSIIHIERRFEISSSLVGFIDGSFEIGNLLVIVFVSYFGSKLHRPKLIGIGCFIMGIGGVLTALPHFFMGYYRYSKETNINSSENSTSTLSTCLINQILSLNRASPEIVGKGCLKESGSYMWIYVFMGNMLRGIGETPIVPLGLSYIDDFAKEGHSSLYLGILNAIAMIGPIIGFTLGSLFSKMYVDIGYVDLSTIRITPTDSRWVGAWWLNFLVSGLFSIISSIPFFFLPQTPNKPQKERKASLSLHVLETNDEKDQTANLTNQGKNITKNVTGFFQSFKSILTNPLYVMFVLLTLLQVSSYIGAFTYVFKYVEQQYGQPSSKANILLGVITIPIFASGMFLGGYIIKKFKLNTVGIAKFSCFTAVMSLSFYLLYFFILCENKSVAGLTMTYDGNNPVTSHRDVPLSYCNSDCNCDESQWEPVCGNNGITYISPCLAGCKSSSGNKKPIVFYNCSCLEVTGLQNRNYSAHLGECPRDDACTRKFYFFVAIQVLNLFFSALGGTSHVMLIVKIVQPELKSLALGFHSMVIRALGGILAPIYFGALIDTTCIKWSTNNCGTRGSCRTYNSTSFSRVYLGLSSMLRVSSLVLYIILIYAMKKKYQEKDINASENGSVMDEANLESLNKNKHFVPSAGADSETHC
# Source text: (§1) The use of teriflunomide for treating multiple sclerosis is described in U.S. Pat. No. 6,794,410.
# OATP1B3 = biological target: T2, OATP1B3 (Homo sapiens, UniProt Q9NPD5); assay: In vitro inhibition of OATP1B3
# T2 sequence (Q9NPD5 1-702): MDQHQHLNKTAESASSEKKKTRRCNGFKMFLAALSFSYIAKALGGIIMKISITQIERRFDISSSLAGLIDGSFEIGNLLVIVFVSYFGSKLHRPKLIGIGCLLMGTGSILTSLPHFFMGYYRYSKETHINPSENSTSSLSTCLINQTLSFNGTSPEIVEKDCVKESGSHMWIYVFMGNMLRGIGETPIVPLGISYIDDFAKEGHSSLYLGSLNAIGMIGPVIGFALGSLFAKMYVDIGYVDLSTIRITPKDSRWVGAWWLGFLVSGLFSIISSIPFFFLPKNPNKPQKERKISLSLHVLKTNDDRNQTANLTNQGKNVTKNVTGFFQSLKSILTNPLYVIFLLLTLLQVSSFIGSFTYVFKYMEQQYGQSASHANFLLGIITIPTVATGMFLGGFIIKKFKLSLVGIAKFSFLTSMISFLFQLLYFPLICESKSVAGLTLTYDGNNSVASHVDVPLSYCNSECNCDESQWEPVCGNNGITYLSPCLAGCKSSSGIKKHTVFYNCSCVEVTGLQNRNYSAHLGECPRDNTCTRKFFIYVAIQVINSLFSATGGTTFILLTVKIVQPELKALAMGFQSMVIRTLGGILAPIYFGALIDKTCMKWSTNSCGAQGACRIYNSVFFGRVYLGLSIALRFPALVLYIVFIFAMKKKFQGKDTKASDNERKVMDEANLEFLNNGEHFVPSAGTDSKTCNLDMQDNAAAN
# Source text: as §1
# OAT3 = biological target: T3, OAT3 (Homo sapiens, UniProt Q8TCC7); assay: In vitro inhibition of OAT3
# T3 sequence (Q8TCC7 1-542): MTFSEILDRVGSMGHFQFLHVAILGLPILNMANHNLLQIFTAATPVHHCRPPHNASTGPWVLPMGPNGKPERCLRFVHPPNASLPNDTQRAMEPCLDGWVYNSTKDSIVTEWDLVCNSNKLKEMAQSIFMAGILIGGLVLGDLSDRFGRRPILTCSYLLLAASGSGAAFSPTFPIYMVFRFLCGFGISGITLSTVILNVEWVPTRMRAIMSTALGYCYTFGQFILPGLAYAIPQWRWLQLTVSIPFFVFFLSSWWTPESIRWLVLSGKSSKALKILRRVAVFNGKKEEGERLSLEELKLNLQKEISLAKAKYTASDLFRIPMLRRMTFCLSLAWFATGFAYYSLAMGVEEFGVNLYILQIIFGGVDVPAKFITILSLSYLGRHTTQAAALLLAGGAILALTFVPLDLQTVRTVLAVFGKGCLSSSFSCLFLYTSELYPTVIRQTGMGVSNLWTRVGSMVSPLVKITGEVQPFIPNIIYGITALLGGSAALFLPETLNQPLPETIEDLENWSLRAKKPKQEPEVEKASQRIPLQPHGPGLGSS
# Source text: as §1
# BCRP = biological target: T4, BCRP (Homo sapiens, UniProt Q9UNQ0); assay: In vitro inhibition of BCRP
# T4 sequence (Q9UNQ0 1-655): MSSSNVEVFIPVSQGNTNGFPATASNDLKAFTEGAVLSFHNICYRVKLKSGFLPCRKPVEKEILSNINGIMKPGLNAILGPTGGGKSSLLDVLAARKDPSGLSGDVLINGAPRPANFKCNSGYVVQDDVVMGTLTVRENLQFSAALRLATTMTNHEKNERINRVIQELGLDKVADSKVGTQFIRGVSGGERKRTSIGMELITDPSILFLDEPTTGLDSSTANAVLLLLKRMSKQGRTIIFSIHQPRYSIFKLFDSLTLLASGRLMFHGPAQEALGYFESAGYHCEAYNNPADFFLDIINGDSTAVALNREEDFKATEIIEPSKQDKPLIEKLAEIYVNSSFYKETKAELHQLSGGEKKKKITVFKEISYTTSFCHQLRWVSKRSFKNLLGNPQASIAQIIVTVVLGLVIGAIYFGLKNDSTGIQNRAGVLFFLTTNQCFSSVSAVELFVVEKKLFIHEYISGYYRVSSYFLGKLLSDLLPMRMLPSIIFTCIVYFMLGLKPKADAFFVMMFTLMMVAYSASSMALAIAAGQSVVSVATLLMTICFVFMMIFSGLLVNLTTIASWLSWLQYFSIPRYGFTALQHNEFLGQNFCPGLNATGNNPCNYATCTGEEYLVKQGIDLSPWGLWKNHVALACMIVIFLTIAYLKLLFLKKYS
# Source text: as §1
# [2] = following teriflunomide 70 mg QD for 4 days and 14 mg QD for 8 days
SMILES,"Increase in mean rosuvastatin AUC [1, 2] [fold]","Increase in mean rosuvastatin Cmax [1, 2] [fold]","AUC(0-t) ([1]; male, human, plasma, rosuvastatin 10 mg alone, mean ± SD, N=15, read-out: Rosuvastatin AUClast) [ng·h/mL]","Tmax ([1]; male, human, plasma, rosuvastatin 10 mg alone, median (min-max), N=15) [h]","Cmax ([1]; male, human, rosuvastatin 10 mg single dose alone, fasted, Day 1 Period 1, plasma, mean ± SD, N=15) [ng/mL]","Rosuvastatin t1/2z ([1]; rosuvastatin 10 mg alone, mean ± SD, N=15) [h]",IC50 (human OATP1B1) [µM],IC50 (OATP1B3) [µM],IC50 (OAT3) [µM],IC50 (BCRP) [µM]
CC(C)c1nc(N(C)S(C)(=O)=O)nc(-c2ccc(F)cc2)c1/C=C/[C@@H](O)C[C@@H](O)CC(=O)O [Rosuvastatin],2.51,2.65,31.5 ± 16.4,3,3.65 ± 1.78,11.1 ± 2.99,,,,
"C/C(O)=C(\C#N)C(=O)Nc1ccc(C(F)(F)F)cc1 [Teriflunomide, (Z)-2-cyano-3-hydroxy-but-2-enoic acid-(4′-trifluoromethylphenyI)-amide]",,,,,,,7.1,7.04,1.3,0.15
